In ChEMBL document CHEMBL5625238, “Lead generation from N-[benzyl(4-phenylbutyl)carbamoyl]amino acid as a novel LPA1 antagonist for the treatment of systemic sclerosis” (Eur J Med Chem, 2023):

Columns and labels:
[1] = Plasma concentration in LPA-induced C57BL/6J mouse at 100 mg/kg, po administered via gavage and measured after 1 hr by LC-MS/MS analysis; type: ADME, organism-based
[2] = biological target: Lysophosphatidic acid receptor 1 (Mus musculus) (UniProt P61793); test: In vivo antagonist activity at LPA1 receptor in C57BL/6J mouse assessed as inhibition of LPA-induced histamine release from mast cells at 10 mg/kg, po administered via gavage and measured after 4 hrs by enzyme immunoassay relative to control; type: functional, organism-based
Mus musculus [3] = species on record: Mus musculus; test: animal or person; conditions: C57BL/6, po, 672 h, read-out: INH
Description: Anti-fibrotic activity in C57BL/6 mouse model of bleomycin-induced skin fibrosis assessed as inhibition of collagen production by measuring reduction in hydroxyproline content at 30 mg/kg, po administered twice daily via gavage for 28 days measured post last dose relative to control

[4] = Plasma concentration in LPA-induced C57BL/6J mouse at 30 mg/kg, po administered via gavage and measured after 8 hrs by LC-MS/MS analysis; type: ADME, organism-based
[5] = biological target: Lysophosphatidic acid receptor 1 (Mus musculus) (UniProt P61793); test: In vivo antagonist activity at LPA1 receptor in C57BL/6J mouse assessed as inhibition of LPA-induced histamine release from mast cells at 100 mg/kg, po administered via gavage and measured after 4 hrs by enzyme immunoassay relative to control; type: functional, organism-based
[6] = biological target: Lysophosphatidic acid receptor 1 (Mus musculus) (UniProt P61793); test: In vivo antagonist activity at LPA1 receptor in C57BL/6J mouse assessed as inhibition of LPA-induced histamine release from mast cells at 30 mg/kg, po administered via gavage and measured after 4 hrs by enzyme immunoassay relative to control; type: functional, organism-based
Mus musculus [7] = test: Anti-hypertrophic activity in po dosed C57BL/6 mouse model of bleomycin-induced skin fibrosis assessed as reduction in skin thickness administered twice daily via gavage for 28 days measured post last dose by caliper method; type: functional, organism-based; conditions: dose 10-100 mg/kg, time 28.0 day
[8] = Plasma concentration in LPA-induced C57BL/6J mouse at 100 mg/kg, po administered via gavage and measured after 8 hrs by LC-MS/MS analysis; type: ADME, organism-based
[9] = biological target: Lysophosphatidic acid receptor 1 (Mus musculus) (UniProt P61793); test: In vivo antagonist activity at LPA1 receptor in C57BL/6J mouse assessed as inhibition of LPA-induced histamine release from mast cells at 100 mg/kg, po administered via gavage and measured after 1 hr by enzyme immunoassay relative to control; type: functional, organism-based
[10] = biological target: Lysophosphatidic acid receptor 1 (Mus musculus) (UniProt P61793); test: In vivo antagonist activity at LPA1 receptor in C57BL/6J mouse assessed as inhibition of LPA-induced histamine release from mast cells at 30 mg/kg, po administered via gavage and measured after 1 hr by enzyme immunoassay relative to control; type: functional, organism-based
[11] = Plasma concentration in LPA-induced C57BL/6J mouse at 10 mg/kg, po administered via gavage and measured after 1 hr by LC-MS/MS analysis; type: ADME, organism-based
[12] = Plasma concentration in LPA-induced C57BL/6J mouse at 30 mg/kg, po administered via gavage and measured after 1 hr by LC-MS/MS analysis; type: ADME, organism-based
Mus musculus [13] = species on record: Mus musculus; test: animal or person; conditions: C57BL/6, po, 672 h, read-out: INH; remark: listed apart in the source
Description: Anti-fibrotic activity in C57BL/6 mouse model of bleomycin-induced skin fibrosis assessed as inhibition of collagen production by measuring reduction in hydroxyproline content at 100 mg/kg, po administered twice daily via gavage for 28 days measured post last dose relative to control

[14] = biological target: Lysophosphatidic acid receptor 1 (Mus musculus) (UniProt P61793); test: In vivo antagonist activity at LPA1 receptor in C57BL/6J mouse assessed as inhibition of LPA-induced histamine release from mast cells at 100 mg/kg, po administered via gavage and measured after 8 hrs by enzyme immunoassay relative to control; type: functional, organism-based
[15] = biological target: Lysophosphatidic acid receptor 1 (Mus musculus) (UniProt P61793); test: In vivo antagonist activity at LPA1 receptor in C57BL/6J mouse assessed as inhibition of LPA-induced histamine release from mast cells at 30 mg/kg, po administered via gavage and measured after 8 hrs by enzyme immunoassay relative to control; type: functional, organism-based
[16] = Plasma concentration in LPA-induced C57BL/6J mouse at 10 mg/kg, po administered via gavage and measured after 8 hrs by LC-MS/MS analysis; type: ADME, organism-based
Mus musculus [17] = test: Anti-fibrotic activity in po dosed C57BL/6 mouse model of bleomycin-induced skin fibrosis assessed as inhibition of collagen production by measuring reduction in hydroxyproline content administered twice daily via gavage for 28 days measured post last dose; type: functional, organism-based; conditions: dose 10-100 mg/kg, time 28.0 day
[18] = Plasma concentration in LPA-induced C57BL/6J mouse at 30 mg/kg, po administered via gavage and measured after 4 hrs by LC-MS/MS analysis; type: ADME, organism-based
[19] = Plasma concentration in LPA-induced C57BL/6J mouse at 100 mg/kg, po administered via gavage and measured after 4 hrs by LC-MS/MS analysis; type: ADME, organism-based
[20] = biological target: Lysophosphatidic acid receptor 1 (Mus musculus) (UniProt P61793); test: In vivo antagonist activity at LPA1 receptor in C57BL/6J mouse assessed as inhibition of LPA-induced histamine release from mast cells at 10 mg/kg, po administered via gavage and measured after 1 hr by enzyme immunoassay relative to control; type: functional, organism-based
[21] = Plasma concentration in LPA-induced C57BL/6J mouse at 10 mg/kg, po administered via gavage and measured after 4 hrs by LC-MS/MS analysis; type: ADME, organism-based
Mus musculus [22] = species on record: Mus musculus; test: animal or person; conditions: C57BL/6, po, 672 h, read-out: INH; remark: listed apart in the source
Description: Anti-fibrotic activity in C57BL/6 mouse model of bleomycin-induced skin fibrosis assessed as inhibition of collagen production by measuring reduction in hydroxyproline content at 10 mg/kg, po administered twice daily via gavage for 28 days measured post last dose relative to control

[23] = biological target: Lysophosphatidic acid receptor 1 (Mus musculus) (UniProt P61793); test: In vivo antagonist activity at LPA1 receptor in C57BL/6J mouse assessed as inhibition of LPA-induced histamine release from mast cells at 10 mg/kg, po administered via gavage and measured after 8 hrs by enzyme immunoassay relative to control; type: functional, organism-based
[24] = biological target: Lysophosphatidic acid receptor 1 (Homo sapiens, UniProt Q92633); test: Antagonist activity at human LPA1 receptor stably expressed in rat RH7777 cells assessed as reduction in LPA-induced intracellular Ca2+ concentration preincubated for 30 mins followed by LPA addition measured by Fluo-4 probe based fluorescence assay
Mus musculus [25] = species on record: Mus musculus; test: animal or person; conditions: C57BL/6, po, 672 h, read-out: INH; remark: listed apart in the source
Description: Anti-fibrotic activity in C57BL/6 mouse model of bleomycin-induced skin fibrosis assessed as inhibition of collagen production by measuring reduction in hydroxyproline content at 2 mg/kg, po administered once daily via gavage for 28 days measured post last dose relative to control

Chain of Lysophosphatidic acid receptor 1 (Mus musculus) (P61793 whole entry): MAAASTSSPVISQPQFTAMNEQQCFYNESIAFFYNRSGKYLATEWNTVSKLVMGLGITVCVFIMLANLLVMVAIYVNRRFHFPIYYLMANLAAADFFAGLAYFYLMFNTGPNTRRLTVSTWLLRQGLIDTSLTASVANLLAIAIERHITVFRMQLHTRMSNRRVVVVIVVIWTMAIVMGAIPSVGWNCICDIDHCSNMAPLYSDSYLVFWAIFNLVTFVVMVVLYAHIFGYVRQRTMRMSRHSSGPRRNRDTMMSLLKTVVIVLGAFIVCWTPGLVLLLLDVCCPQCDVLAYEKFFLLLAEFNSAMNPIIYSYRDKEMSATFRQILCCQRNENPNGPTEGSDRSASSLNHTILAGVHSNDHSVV
Chain of Lysophosphatidic acid receptor 1 (Q92633 whole entry): as the sequence (P61793 whole entry) above, with A4I, S8I, Q22P, Y40H, V61I, D193E, H194N, V269I, N331S, N335T counted along it

## COc1cc([C@@H](C)N(CCCCc2ccccc2)C(=O)NC2(C(=O)O)CC(F)(F)C2)cc(OC)c1C
[1]
  concentration at 1 h: 12.1 µg/mL
[2]
  inhibition: 36%
Mus musculus [3]
  inhibition in vivo at 30 mg/kg: 49%
[4]
  concentration at 8 h: 0.596 µg/mL
[5]
  inhibition: 94%
[6]
  inhibition: 66%
Mus musculus [7]
  Activity: Dose-Dependent Effect
[8]
  concentration at 8 h: 2.46 µg/mL
[9]
  inhibition: 95%
[10]
  inhibition: 94%
[11]
  concentration at 1 h: 0.892 µg/mL
[12]
  concentration at 1 h: 4.24 µg/mL
Mus musculus [13]
  inhibition in vivo at 100 mg/kg: 77%
[14]
  inhibition: 77%
[15]
  inhibition: 44%
[16]
  concentration at 8 h: 0.175 µg/mL
Mus musculus [17]
  inhibition: Dose-Dependent Effect
[18]
  concentration at 4 h: 0.805 µg/mL
[19]
  concentration at 4 h: 7.16 µg/mL
[20]
  inhibition: 58%
[21]
  concentration at 4 h: 0.252 µg/mL
Mus musculus [22]
  inhibition in vivo at 10 mg/kg: 22%
[23]
  inhibition: 2%

## COc1cc(CN(CCCCc2ccccc2)C(=O)N[C@H](CC(C)C)C(=O)O)cc(OC)c1C
[24]
  IC50: 3.66 µM

## COc1cc([C@@H](C)N(CCCCCc2ccccc2)C(=O)NC2(C(=O)O)CC(F)(F)C2)cc(OC)c1C
[24]
  IC50: 0.586 µM

## COc1cc([C@H](C)N(CCCCc2ccccc2)C(=O)NC2(C(=O)O)CC(F)(F)C2)cc(OC)c1C
[24]
  IC50: 0.47 µM

## COc1cc([C@@H](C)N(CCCc2ccccc2)C(=O)NC2(C(=O)O)CC(F)(F)C2)cc(OC)c1C
[24]
  IC50: 0.0514 µM

## COc1cc(CN(CCCCc2ccccc2)C(=O)NC(C)(C)C(=O)O)cc(OC)c1C
[24]
  IC50: 2.14 µM

## COc1cc(CN(CCCCc2ccccc2)C(=O)NC2(C(=O)O)CCCCC2)cc(OC)c1C
[24]
  IC50: 2.15 µM

## COc1cc(CN(CCCCc2ccccc2)C(=O)NC2(C(=O)O)CC2)cc(OC)c1C
[24]
  IC50: 2.75 µM

## C[C@]12C=CC(=O)C=C1CC[C@@H]1[C@@H]2C(=O)C[C@@]2(C)[C@H]1CC[C@]2(O)C(=O)CO [PREDNISONE]
Mus musculus [25]
  inhibition in vivo at 2 mg/kg: 63%

## COc1cc(CN(CCCCc2ccccc2)C(=O)NC2(C(=O)O)CCCC2)cc(OC)c1C
[24]
  IC50: 1.79 µM
